These compounds were tested against SARS-CoV-2 3CL-protease (Severe acute respiratory syndrome coronavirus 2, UniProt P0DTD1) (assay: SARS-CoV-2 3C-Like (3CL) Protease Fluorescence Assay (FRET)). Conditions: SARS-CoV-2 3CL-protease 10 nM, test compounds 0-10 μM, duplicate, read-out: IC50.
Assay type: biochemical
`CC(C)(C)C[C@H](NC(=O)[C@H](CC1CC1)NC(=O)OC1CC1)C(=O)N1C[C@]2(C[C@H]1C#N)C(=O)Nc1ccccc12` [Example 311] was tested, and the IC50 was < 100 nM. `CC(C)(C)C[C@H](NC(=O)[C@H](CC1CC1)NC(=O)C12CC3CC(CC(C3)C1)C2)C(=O)N1C[C@]2(C[C@H]1C#N)C(=O)Nc1ccccc12` [Example 319] was tested, and the IC50 was < 100 nM. With `CC(C)C[C@@H](C(=O)N1C[C@]2(C[C@H]1C#N)C(=O)Nc1ccccc12)N(C)C(=O)[C@H](C)NC(=O)c1cccc(-c2ccc(F)cc2F)c1` [Example 146] the IC50 was < 100 nM. For `CC(C)(C)C[C@H](NC(=O)[C@@H](Nc1ccc2ccccc2c1)C1CC1)C(=O)N1C[C@]2(C[C@H]1C#N)C(=O)Nc1ccccc12` [Example 342], the IC50 was < 100 nM. `CC(C)C[C@@H](C(=O)N1C[C@]2(C[C@H]1C#N)C(=O)Nc1ccccc12)N(C)C(=O)[C@H](C)NC(=O)CC(F)(F)F` [Example 266] was tested, and the IC50 was < 100 nM. `CC(C)C[C@@H](C(=O)N1C[C@]2(C[C@H]1C#N)C(=O)Nc1ccccc12)N(C)C(=O)[C@@H]1[C@@H]2C[C@@H]2CN1C1CC1` [Example 252] was tested, and the IC50 was 100 to 1000 nM. Compound `CC(C)C[C@@H](C(=O)N1C[C@]2(C[C@H]1C#N)C(=O)Nc1ccccc12)N(C)C(=O)[C@@H]1[C@@H]2C[C@@H]2CN1C` [Example 253] has an IC50 of 100 to 1000 nM. In the case of `CC(C)C[C@@H](C(=O)N1C[C@]2(C[C@H]1C#N)C(=O)Nc1ccccc12)N(C)C(=O)[C@H](C)NC(=O)c1c(F)ccc2[nH]ccc12` [Example 185], the IC50 is reported as < 100 nM. For `CCN1C[C@H]2CCCC[C@H]2C[C@H]1C(=O)N(C)[C@@H](CC(C)(C)C)C(=O)N1C[C@]2(C[C@H]1C#N)C(=O)Nc1ccccc12` [Example 179], the IC50 was < 100 nM. For `CCN(C(=O)[C@H](C)NC(=O)C(F)(F)C(F)(F)F)[C@@H](CC(C)C)C(=O)N1C[C@]2(C[C@H]1C#N)C(=O)Nc1ccccc12` [Example 366], the IC50 was < 100 nM. `C[C@H](NC(=O)c1c(F)c(F)c(F)c(F)c1F)C(=O)N(C)[C@@H](CC(C)(C)C)C(=O)N1C[C@]2(C[C@H]1C#N)C(=O)Nc1ccccc12` [Example 300] was tested, and the IC50 was < 100 nM. `CC(C)(C)C[C@H](NC(=O)[C@H](CC1CC1)NS(=O)(=O)c1cnn(-c2ccc(F)cc2)c1)C(=O)N1C[C@]2(C[C@H]1C#N)C(=O)Nc1ccccc12` [Example 314] showed an IC50 of 100 to 1000 nM. `CC(C)C[C@@H](C(=O)N1C[C@]2(C[C@H]1C#N)C(=O)Nc1ccccc12)N(C)C(=O)[C@H](C)NC(=O)C1(F)C(F)(F)C1(F)F` [Example 275] was tested, and the IC50 was < 100 nM. For `CC(C)C[C@@H](C(=O)N1C[C@]2(C[C@H]1C#N)C(=O)Nc1ccccc12)N(C)C(=O)[C@H](C)NC(=O)C(C)(C)C(F)(F)F` [Example 283], the IC50 was < 100 nM. With `CC[C@H](NC(=O)C(F)(F)F)C(=O)N(C)[C@@H](CC(C)C)C(=O)N1C[C@]2(C[C@H]1C#N)C(=O)Nc1ccccc12` [Example 199] the IC50 was < 100 nM. For `C[C@@H]1NC(=O)CCCCc2ccc3c(c2)[C@@]2(C[C@@H](C#N)N(C2)C(=O)[C@H](CC(C)(C)C)N(C)C1=O)C(=O)N3` [Example 377], the IC50 was < 100 nM. With `CC(C)C[C@@H](C(=O)N1C[C@]2(C[C@H]1C#N)C(=O)Nc1ccccc12)N(C)C(=O)[C@H](C)NC(=O)c1c(F)ccc2ccoc12` [Example 187] the IC50 was < 100 nM. Work on `CC(C)C[C@H](C(=O)N1C[C@]2(C[C@H]1C#N)C(=O)Nc1ccccc12)n1cccc(NS(=O)(=O)C2CC2)c1=O` [Example 359] yielded an IC50 of 100 to 1000 nM. For `CC(C)C[C@@H](C(=O)N1C[C@]2(C[C@H]1C#N)C(=O)Nc1ccccc12)N(C)C(=O)[C@H](C)NC(=O)C12CC3CC(CC(C3)C1)C2` [Example 298], the IC50 was < 100 nM. In the case of `CC(C)N1[C@H](C(=O)N(C)[C@@H](CC(C)(C)C)C(=O)N2C[C@]3(C[C@H]2C#N)C(=O)Nc2ccccc23)C[C@@H]2CCC[C@@H]21` [Example 178], the IC50 is reported as < 100 nM. `CC(C)C[C@@H](C(=O)N1C[C@]2(C[C@H]1C#N)C(=O)Nc1ccc(Cl)cc12)N(C)C(=O)[C@H](C)NC(=O)C(F)(F)C(F)(F)F` [Example 168] was tested, and the IC50 was < 100 nM. For `C[C@H](NC(=O)c1ccc(Cl)c(Cl)c1)C(=O)N(C)[C@@H](CC(C)(C)C)C(=O)N1C[C@]2(C[C@H]1C#N)C(=O)Nc1ccccc12` [Example 212], the IC50 was < 100 nM. With `CC(C)(C)C[C@H](NC(=O)[C@H](CC1CC1)NS(=O)(=O)c1ccc(F)cc1)C(=O)N1C[C@]2(C[C@H]1C#N)C(=O)Nc1ccccc12` [Example 313] the IC50 was < 100 nM. In the case of `CC(C)C[C@@H](C(=O)N1C[C@]2(C[C@H]1C#N)C(=O)Nc1ccccc12)N(C)C(=O)[C@@H]1CC2(CCCC2)CN1C1CC1` [Example 256], the IC50 is reported as < 100 nM. With `CC(C)(C)C[C@H](NC(=O)[C@H](Cc1ccccc1)Nc1ccc(F)cc1)C(=O)N1C[C@]2(C[C@H]1C#N)C(=O)Nc1ccccc12` [Example 339] the IC50 was < 100 nM. For `CC(C)(C)C[C@H](NC(=O)[C@@H](Nc1ccccc1)C1CC1)C(=O)N1C[C@]2(C[C@H]1C#N)C(=O)Nc1ccccc12` [Example 340], the IC50 was < 100 nM. With `CC(C)C[C@@H](C(=O)N1C[C@]2(C[C@H]1C#N)C(=O)Nc1ccccc12)n1cccc(NC(=O)C2CC2)c1=O` [Example 357] the IC50 was < 100 nM. In the case of `C[C@@H]1NC(=O)CCCc2ccc3c(c2)[C@@]2(C[C@@H](C#N)N(C2)C(=O)[C@H](CC(C)(C)C)N(C)C1=O)C(=O)N3` [Example 378], the IC50 is reported as < 100 nM. `CC(C)(C)C[C@H](NC(=O)[C@H](CC1CC1)NC(=O)C1CCC1)C(=O)N1C[C@]2(C[C@H]1C#N)C(=O)Nc1ccccc12` [Example 320] was tested, and the IC50 was < 100 nM. `CCN(C(=O)[C@H](C)NC(=O)c1c(F)cc(F)cc1F)[C@@H](CC(C)C)C(=O)N1C[C@]2(C[C@H]1C#N)C(=O)Nc1ccccc12` [Example 362] was tested, and the IC50 was < 100 nM. `[2H]C([2H])([2H])N(C(=O)[C@H](C)NC(=O)C(F)(F)C(F)(F)F)[C@@H](CCCC)C(=O)N1C[C@]2(C[C@H]1C#N)C(=O)Nc1ccccc12` [Example 192] was tested, and the IC50 was < 100 nM. For `COc1ccc(C(=O)N[C@@H](C)C(=O)N(C)[C@@H](CC(C)(C)C)C(=O)N2C[C@]3(C[C@H]2C#N)C(=O)Nc2ccccc23)c2ccccc12` [Example 293], the IC50 was < 100 nM. `C[C@H](NC(=O)C(F)(F)Cc1ccc(F)cc1)C(=O)N(C)[C@@H](CC(C)(C)C)C(=O)N1C[C@]2(C[C@H]1C#N)C(=O)Nc1ccccc12` [Example 243] was tested, and the IC50 was < 100 nM. In the case of `C[C@H](NC(=O)C(F)(F)F)C(=O)N[C@@H](CC(C)(C)C)C(=O)N1C[C@]2(C[C@H]1C#N)C(=O)Nc1ccccc12` [Example 222], the IC50 is reported as < 100 nM. In the case of `C[C@H](NC(=O)C(C)(C)C)C(=O)N(C)[C@@H](CC(C)(C)C)C(=O)N1C[C@]2(C[C@H]1C#N)C(=O)Nc1ccccc12` [Example 209], the IC50 is reported as < 100 nM. `CC(C)C[C@@H](C(=O)N1C[C@]2(C[C@H]1C#N)C(=O)Nc1ccccc12)N(C)C(=O)[C@H]1CC[C@H](c2ccc(F)cc2)N1C(C)C` [Example 237] was tested, and the IC50 was < 100 nM. For `CCCC(F)(F)C(=O)N[C@@H](C)C(=O)N(CC)[C@@H](CC(C)C)C(=O)N1C[C@]2(C[C@H]1C#N)C(=O)Nc1ccccc12` [Example 369], the IC50 was < 100 nM. `C[C@H](NC(c1ccc(F)cc1)C(F)(F)F)C(=O)N(C)[C@@H](CC(C)(C)C)C(=O)N1C[C@]2(C[C@H]1C#N)C(=O)Nc1ccccc12` (stereo partly drawn) [Example 302] was tested, and the IC50 was < 100 nM. `CC(C)(C)C[C@H](NC(=O)[C@@H](NC(=O)C1(c2ccccc2)CC1)c1ccccc1)C(=O)N1C[C@]2(C[C@H]1C#N)C(=O)Nc1ccccc12` [Example 248] was tested, and the IC50 was < 100 nM. With `CC[C@H](NC(=O)C(F)(F)C(F)(F)F)C(=O)N(C)[C@@H](CC(C)C)C(=O)N1C[C@]2(C[C@H]1C#N)C(=O)Nc1ccccc12` [Example 200] the IC50 was < 100 nM. In the case of `C[C@H](NC(=O)/C=C/c1ccc(F)cc1)C(=O)N(C)[C@@H](CC(C)(C)C)C(=O)N1C[C@]2(C[C@H]1C#N)C(=O)Nc1ccccc12` [Example 242], the IC50 is reported as < 100 nM. For `CC(C)C[C@@H](C(=O)N1C[C@]2(C[C@H]1C#N)C(=O)Nc1ccccc12)N(C)C(=O)[C@H](C)NC(=O)C(F)(F)C1CCCC1` [Example 197], the IC50 was < 100 nM. With `C[C@H](NC(=O)C(F)(F)C(F)(F)F)C(=O)N(C)[C@@H](CC1CC1)C(=O)N1C[C@]2(C[C@H]1C#N)C(=O)Nc1ccccc12` [Example 205] the IC50 was < 100 nM. For `C[C@H](NC(=O)C(F)(F)F)C(=O)N(C)[C@@H](Cc1ccccc1)C(=O)N1C[C@]2(C[C@H]1C#N)C(=O)Nc1ccccc12` [Example 267], the IC50 was < 100 nM. With `C[C@H](NC(=O)C(C)(F)F)C(=O)N(C)[C@@H](Cc1ccccc1)C(=O)N1C[C@]2(C[C@H]1C#N)C(=O)Nc1ccccc12` [Example 269] the IC50 was < 100 nM. With `C[C@H](NC(=O)c1ccc(S(C)(=O)=O)cc1)C(=O)N(C)[C@@H](CC(C)(C)C)C(=O)N1C[C@]2(C[C@H]1C#N)C(=O)Nc1ccccc12` [Example 287] the IC50 was < 100 nM. Compound `CC(C)(C)C[C@H](NC(=O)[C@H](CC1CC1)NC(=O)OC1CC1)C(=O)N1C[C@]2(C[C@H]1C#N)C(=O)Nc1ccccc12` [Example 331] has an IC50 of 100 to 1000 nM. `CC(=O)Nc1cccn([C@H](CC(C)C)C(=O)N2C[C@]3(C[C@H]2C#N)C(=O)Nc2ccccc23)c1=O` [Example 358] was tested, and the IC50 was < 100 nM. With `C[C@H](NC(=O)c1ccc(F)cc1)C(=O)N(C)[C@@H](Cc1ccccc1)C(=O)N1C[C@]2(C[C@H]1C#N)C(=O)Nc1ccccc12` [Example 270] the IC50 was < 100 nM. In the case of `C[C@H](NC(=O)c1cc2c(F)cc(F)c(F)c2[nH]1)C(=O)N(C)[C@@H](CC(C)(C)C)C(=O)N1C[C@]2(C[C@H]1C#N)C(=O)Nc1ccccc12` [Example 208], the IC50 is reported as < 100 nM. `CC(C)(C)C[C@H](NC(=O)[C@H](CC1CC1)NC(=O)c1c[nH]cn1)C(=O)N1C[C@]2(C[C@H]1C#N)C(=O)Nc1ccccc12` [Example 325] showed an IC50 of 100 to 1000 nM. In the case of `CC(C)(C)C[C@H](NC(=O)[C@H](CC1CC1)NC(=O)C1CC2CCC1C2)C(=O)N1C[C@]2(C[C@H]1C#N)C(=O)Nc1ccccc12` (stereo partly drawn) [Example 318], the IC50 is reported as < 100 nM. For `CN(C(=O)[C@@H]1C[C@@H]2CCCC[C@@H]2N1C(=O)C(F)(F)F)[C@@H](CC(C)(C)C)C(=O)N1C[C@]2(C[C@H]1C#N)C(=O)Nc1ccccc12` [Example 177], the IC50 was 100 to 1000 nM. `C[C@H](NC(=O)c1ccc(C(F)(F)F)cc1)C(=O)N(C)[C@@H](CC(C)(C)C)C(=O)N1C[C@]2(C[C@H]1C#N)C(=O)Nc1ccccc12` [Example 286] was tested, and the IC50 was < 100 nM.
